For orientation: IC50 means the concentration that inhibits the measured activity by half.

The structures appear in SMILES notation.

In this experiment the target is T1, Recombinant human CBP containing the bromodomain (CBP-BD (1043-1159)) (Homo sapiens, UniProt Q92793).
T1 construct: Recombinant human CBP bromodomain (CBP-BD (1043-1159)); made in house; host or cells: E. coli BL21-CodonPlus (DE3), modified pET vector
T1 sequence (Q92793 1081-1197): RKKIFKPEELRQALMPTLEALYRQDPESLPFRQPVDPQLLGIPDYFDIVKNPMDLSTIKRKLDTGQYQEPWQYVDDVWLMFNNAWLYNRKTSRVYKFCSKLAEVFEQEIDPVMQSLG
Nature of the experiment: CBP Alphascreen binding assay. Conditions: read-out: CREBBP (CBP) IC50. In short, it runs like this: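 Buffer: 50 mM HEPES pH 7.5, 50 mM NaCl, 0.01% BSA, 0.01% Triton X-100, 2 mM DTT. The signal was normalised to plate controls and fitted with a four-parameter curve to give IC50.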
On the technique in general: Bead proximity is the source of the signal in Alpha formats.
As to `Cc1noc(C)c1-c1cnc2c(c1)c(-c1c(Cl)cc(C(=O)O)cc1OC1CCC1)cn2C1CCOCC1` [P-0358, 3-chloro-5-cyclobutoxy-4-(5-(3,5-dimethylisoxazol-4-yl)-1-(tetrahydro-2H-pyran-4-yl)-1H-pyrrolo[2,3-b]pyridin-3-yl)benzoic acid], the IC50 fell in the range of 0.1 to 1000 nM.

`Cc1noc(C)c1-c1cnc2c(c1)c(-c1c(Cl)cc(C(=O)O)cc1OCC(F)F)cn2C1CCOCC1` [P-0359, 3-chloro-5-(2,2-difluoroethoxy)-4-(5-(3,5-dimethylisoxazol-4-yl)-1-(tetrahydro-2H-pyran-4-yl)-1H-pyrrolo[2,3-b]pyridin-3-yl)benzoic acid]: the half-maximal inhibitory concentration (IC50) lay in the range of 0.1 to 1000 nM.

For `CCOc1cc(C(=O)O)c(F)cc1-c1cn([C@H]2CCOC2)c2ncc(-c3c(C)noc3C)cc12` [P-0360, (S)-4-(5-(3,5-dimethylisoxazol-4-yl)-1-(tetrahydrofuran-3-yl)-1H-pyrrolo[2,3-b]pyridin-3-yl)-5-ethoxy-2-fluorobenzoic acid], the IC50 is 0.1 to 1000 nM.

Regarding `Cc1noc(C)c1-c1cnc2c(c1)c(-c1c(Cl)cc(C(=O)O)cc1OC1CCC1)cn2[C@H]1CCOC1` [P-0361, (S)-3-chloro-5-cyclobutoxy-4-(5-(3,5-dimethylisoxazol-4-yl)-1-(tetrahydrofuran-3-yl)-1H-pyrrolo[2,3-b]pyridin-3-yl)benzoic acid], the IC50 was 0.1 to 1000 nM.

Consider `COc1cc(C(=O)O)ncc1-c1cn(C2CCOCC2)c2ncc(-c3c(C)noc3C)cc12` [P-0362, 5-(5-(3,5-dimethylisoxazol-4-yl)-1-(tetrahydro-2H-pyran-4-yl)-1H-pyrrolo[2,3-b]pyridin-3-yl)-4-methoxypicolinic acid], for which the IC50 lay within 0.1 to 1000 nM.

As for `Cc1noc(C)c1-c1cnc2c(c1)c(-c1c(Cl)cc(C(=O)O)cc1OC1CC1)cn2C(C1CC1)C1CC1` [P-0363, 3-chloro-5-cyclopropoxy-4-(1-(dicyclopropylmethyl)-5-(3,5-dimethylisoxazol-4-yl)-1H-pyrrolo[2,3-b]pyridin-3-yl)benzoic acid], the IC50 lay within 0.1 to 1000 nM.

With `Cc1noc(C)c1-c1cnc2c(c1)c(-c1ccc(C(=O)O)cc1OC(F)(F)F)cn2CC1(C#N)CCC1` [P-0364, 4-(1-((1-cyanocyclobutyl)methyl)-5-(3,5-dimethylisoxazol-4-yl)-1H-pyrrolo[2,3-b]pyridin-3-yl)-3-(trifluoromethoxy)benzoic acid], the IC50 was 0.1 to 1000 nM.

In the case of `Cc1nn(CC(C)(C)O)cc1-n1cc(-c2ccc(C(=O)O)cc2OC(F)(F)F)c2cc(-c3c(C)noc3C)cnc21` [P-0365, 4-(5-(3,5-dimethylisoxazol-4-yl)-1-(1-(2-hydroxy-2-methylpropyl)-3-methyl-1H-pyrazol-4-yl)-1H-pyrrolo[2,3-b]pyridin-3-yl)-3-(trifluoromethoxy)benzoic acid], the IC50 lay in the range of 0.1 to 1000 nM.

For the compound `Cc1nn(CC(=O)N(C)C)cc1-n1cc(-c2ccc(C(=O)O)cc2OC(F)(F)F)c2cc(-c3c(C)noc3C)cnc21` [P-0366, 4-(1-(1-(2-(dimethylamino)-2-oxoethyl)-3-methyl-1H-pyrazol-4-yl)-5-(3,5-dimethylisoxazol-4-yl)-1H-pyrrolo[2,3-b]pyridin-3-yl)-3-(trifluoromethoxy)benzoic acid], the IC50 was in the range of 0.1 to 1000 nM.

On to `Cc1cc(C(=O)O)cc(OCC(F)F)c1-c1cn(C2CCOCC2)c2ncc(-c3c(C)noc3C)cc12` [P-0367, 3-(2,2-difluoroethoxy)-4-(5-(3,5-dimethylisoxazol-4-yl)-1-(tetrahydro-2H-pyran-4-yl)-1H-pyrrolo[2,3-b]pyridin-3-yl)-5-methylbenzoic acid], for which the IC50 is 0.1 to 1000 nM.

For the compound `COc1nc(C(=O)O)ccc1-c1cn(C2CCOCC2)c2ncc(-c3c(C)noc3C)cc12` [P-0368, 5-(5-(3,5-dimethylisoxazol-4-yl)-1-(tetrahydro-2H-pyran-4-yl)-1H-pyrrolo[2,3-b]pyridin-3-yl)-6-methoxypicolinic acid], the IC50 fell in the range of 0.1 to 1000 nM.

Source of the values: patent publication US11446287B2, “Compounds and methods for EP300 or CBP modulation and indications therefor” (Opna Immuno-Oncology SA, priority 2019, dated 2022).
